pEC50: −log10 of the molar value. “Also recorded” adds a separate entry of the source.
Experiments:
HeLa cells [1] = test: MTT assay for cell viability; assay type: cell-based, human
Text: We characterized the activity of novel compounds in a cellular assay to establish whether there were any cytotoxic effects. We used an established MTT (3-(4,5-dimethylthiazolyl-2)-2, 5-diphenyltetrazolium bromide or thiazolyl blue) method using HELA cells to determine whether the small molecule affects cell viability. In this method, a purple formazan dye forms as a result of the cleavage of the yellow tetrazolium MTT within metabolically active cells. The resulting precipitate of the intracellular formazan can be dissolved in a detergent solution and quantified spectrophotometrically at 595 nm. We measured the cytotoxicity by incubating HELA cells in the presence of novel compounds at concentrations ranging from 1 to 100 µM for 24 h. Cell viability was measured using the MTT method after […] culture. The extent of cell death was expressed relative to a control containing DMSO. […] Therefore, as a next step we tested the effects of lead compounds on insulin catabolism using HeLa cells.
The cytotoxicity assay was performed using human cervical cancer HeLa cells. Cells were cultured at 37°C under a humidified atmosphere of 5% CO2 in medium supplemented with 10% fetal bovine serum and dispersed in replicate 96-well plates with 2.5×10^4 cells/well. Compounds were then added. After 24 hours exposure to the chemical compounds, the cell viability was determined by 3-[4,5-dimethylthiazol-2-yl]-2,5-diphenpyltetrazolium bromide (MTT) assay. The optical density (OD) of the wells was determined using ELISA plate reader at a test wavelength of 600 nm and a reference wavelength of 630 nm. Each measurement was carried out in triplicate.

HeLa cells [2] = test: Cell-based degradation of FITC-insulin; design: species or system human
Protocol: It was shown that HeLa cells express insulin receptor, and thus take FITC-labeled insulin inside and degrade it intracellularly, [21], [22]. First, FITC-insulin was added to the culture that contains HeLa cells and incubated for 2 hours in order to allow for sufficient uptake of FITC-insulin by HeLa cells. In order to ensure that FITC-labeled insulin is translocating into the cells through insulin uptake receptor, and that cytoplasmic IDE can degrade FITC- insulin, we conducted live cell imaging of HeLa cells, and recorded fluorescence. At various time points compounds, D3, D6, and D10, were added; and cells were washed with Hank's balanced salt solution (HBSS), the these cells were collected and lysed with appropriate buffer. After centrifugation, cell free extracts were used to measure the change in fluorescence by luminometer. […] Compound D10 increased in vivo proteolysis of FITC- insulin by about 32 fold with HeLa cells compared to control group (Fig. 3A). […] These findings are consistent with the data obtained by in vitro assay, showing enhanced degradation of insulin by D10 and D3 (Fig. 3A). […] This figure further verifies the significant increase in fluorescence observed in the presence of compound D10, which is consistent with our in vitro assay (Fig. 3B).
Cells were cultured at 37°C under a humidified atmosphere of 5% CO2 in medium supplemented with 10% fetal bovine serum. Then, FITC-insulin was added to cell medium and incubated for 2 h at 37°C. Next, compounds were loaded at different time intervals separately. Cells were washed with Hank's balanced salt solution (HBSS), then disrupted with 1× passive lysis buffer. Fluorescence was measured with a luminescence multi-label plate leader, and changes in fluorescence was imaged by fluorescence microscope at Burc Laboratory (Istanbul, Turkey).

IDE [3] = biological target: T1, IDE (Homo sapiens, UniProt P14735); test: FAβB (amyloid-β) degradation assay; assay type: biochemical
T1 construct: made in house; host or cells: E. coli BL21
T1 sequence (P14735 1-1019): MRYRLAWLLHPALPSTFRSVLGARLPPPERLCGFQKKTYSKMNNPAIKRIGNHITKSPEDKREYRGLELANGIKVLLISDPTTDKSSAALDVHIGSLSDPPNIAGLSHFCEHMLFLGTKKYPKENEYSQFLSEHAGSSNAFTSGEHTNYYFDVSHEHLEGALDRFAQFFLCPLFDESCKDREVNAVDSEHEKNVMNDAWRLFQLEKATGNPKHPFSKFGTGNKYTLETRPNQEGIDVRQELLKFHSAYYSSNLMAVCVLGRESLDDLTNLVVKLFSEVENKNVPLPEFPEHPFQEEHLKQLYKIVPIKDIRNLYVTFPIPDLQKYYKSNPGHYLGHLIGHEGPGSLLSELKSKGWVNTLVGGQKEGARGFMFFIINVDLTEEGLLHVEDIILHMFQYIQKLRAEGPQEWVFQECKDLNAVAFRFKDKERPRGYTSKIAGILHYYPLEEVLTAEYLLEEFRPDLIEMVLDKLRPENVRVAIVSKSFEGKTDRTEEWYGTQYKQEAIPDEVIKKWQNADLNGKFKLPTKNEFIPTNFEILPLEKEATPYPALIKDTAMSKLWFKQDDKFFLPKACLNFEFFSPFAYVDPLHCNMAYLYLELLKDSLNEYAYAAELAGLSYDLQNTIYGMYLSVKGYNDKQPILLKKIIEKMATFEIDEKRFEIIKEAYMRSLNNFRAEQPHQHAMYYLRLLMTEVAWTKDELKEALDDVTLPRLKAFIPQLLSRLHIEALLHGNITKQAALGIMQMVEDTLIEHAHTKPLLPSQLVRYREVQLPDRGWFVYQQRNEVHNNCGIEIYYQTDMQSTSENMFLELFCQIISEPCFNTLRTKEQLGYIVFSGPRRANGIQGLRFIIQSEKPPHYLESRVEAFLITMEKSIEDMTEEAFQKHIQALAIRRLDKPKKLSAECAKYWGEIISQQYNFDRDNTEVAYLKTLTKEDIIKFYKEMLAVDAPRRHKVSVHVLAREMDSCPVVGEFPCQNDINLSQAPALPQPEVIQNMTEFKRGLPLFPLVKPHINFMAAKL
Protocol: The 10 compounds given in Table 1 were subjected to further characterization and their effect was measured on the proteolytic activity of IDE using different substrates. Initially, activity assays were carried out at fixed 20 µM concentrations for all molecules to identify the effect of those compounds on IDE activity. IDE activity was quantified by monitoring the change in fluorescence for the proteolysis of fluorogenic-substrate V, FITC- insulin-bound antibody, and FAβB by recombinant human IDE purified from E.coli BL21 [6], [18], [19]. […] Also, D6 increased the amyloid-β degradation by 20% (Fig. S1C). Further, D10 enhanced IDE-mediated FITC-insulin-mAb and substrate V degradation by 290% and 65%, respectively (Fig. S1A, B). Next, an EC50 value of each molecule that enhanced IDE activity was determined with a dose response assay, where specific activity of IDE was measured with different concentrations of the lead compounds and then the plot was fit to Sigmoidal Hill-4 parameter equation. […] EC50 value for D3 on insulin degradation was approximately measured as 20 µM (Fig. S2C), whereas EC50 value for D6 on amyloid-β degradation was 2 µM (Fig. S2D). […] Among all these four compounds, D10 seems to be the potent activator of IDE, when proteolysis of insulin is considered.
This assay was performed as follows: 10 µl of 50 nM of FAβB was dissolved in a buffer which consisted of 50 mM HEPES, 100 mM NaCl, % 0,05 (v/v) bovine serum albumin, at a pH of 7.4. The reaction was initiated in a total volume of 100 µl with 20 µM drugs by adding 20 µl of 0.02 mg/ml of IDE for 2.5 h at 37°C. The reaction was stopped by adding 2 µl of 100 mM of protease inhibitor (1, 10-phenanthroline). Uncleaved FAβB was precipitated with Neutravidin- coated agarose beads by gentle rocking for 30 min. and centrifugation for 10 min at 14000 g. The supernatant was transferred to the black 96 well plates and increase in fluorescence (488 excitation, 525 emission) was measured with a multi-label plate reader.
The effect of the lead compounds on the initial rate of proteolysis of IDE was determined by measurement in fluorescence with time both in the presence and absence of the lead compounds. The kinetic data for IDE-mediated insulin, substrate V and amyloid-β degradation were plotted and fitted using SigmaPlot software (Sigmoidal, Hill, 4 parameter). For the initial rate calculations, kinetic data were fitted using SigmaPlot software (Hyperbola; Single Rectangular I, 3 Parameter).

IDE [4] = details: bradykinin as IDE substrate; cited from earlier work

With O=[N+]([O-])c1cc(Cn2c(-c3ccc(Cl)c([N+](=O)[O-])c3)nc3ccccc32)ccc1Cl [Compound D6] the “cytotoxicity at EC50 value” (HeLa cells [1]; 2 µM) was “not toxic”, the “cytotoxicity at high concentrations” value (HeLa cells [1]; 1 to 100 µM, 24 h) was “showed toxicity at higher concentrations” and the “effect on insulin catabolism in HeLa cells” value (HeLa cells [2]; HeLa cells pre-loaded with FITC-insulin) was “no effect on insulin catabolism; also recorded: does not change insulin degradation”. The “permeability through cell membrane” value (HeLa cells [2]; inferred from HeLa cell assay) was “permeable through cell membrane”, the “increase of IDE-mediated amyloid-β degradation” value (IDE [3]; 20 µM compound) was 20% and the “effect of ATP on amyloid-β degradation in presence of compound” value (IDE [3]; ATP, data not shown) was “no effect”. For the same compound, the pEC50 (IDE [3]; dose response, Sigmoidal Hill 4 parameter fit) was 5.70 and the “acceleration of initial rate of amyloid-β proteolysis” value (IDE [3]; presence vs absence of compound) was 1.3 factor.

For “bradykinin (RPPGFSPFR; Bradykinin; UniProt P01042 381-389, looked up)”, the Km (IDE [4]) is given as 4.2 mM.

Reference: publication PMC3280214, “Structure Based Discovery of Small Molecules to Regulate the Activity of Human Insulin Degrading Enzyme” (PLoS ONE, 2012)
